In patent US8420636B2, “Pyrrolidinyl-alkyl-amide derivatives, their preparation, and their therapeutic application as CCR3 receptor ligands” (Sanofi, priority 2008, dated 2013):
Read-outs that look alike come from different tables or passages of the source.

Experiments:
[1] = target: T1, hCCR3 (Homo sapiens, UniProt P51677); assay: Ca2+ mobilization in hCCR3-RBL and hCCR3 K562 cells (test B); type: cell-based
T1 construct: expressed in transfected cells; host or cells: K562 and RBL2H3 cells
T1 sequence (P51677 1-355): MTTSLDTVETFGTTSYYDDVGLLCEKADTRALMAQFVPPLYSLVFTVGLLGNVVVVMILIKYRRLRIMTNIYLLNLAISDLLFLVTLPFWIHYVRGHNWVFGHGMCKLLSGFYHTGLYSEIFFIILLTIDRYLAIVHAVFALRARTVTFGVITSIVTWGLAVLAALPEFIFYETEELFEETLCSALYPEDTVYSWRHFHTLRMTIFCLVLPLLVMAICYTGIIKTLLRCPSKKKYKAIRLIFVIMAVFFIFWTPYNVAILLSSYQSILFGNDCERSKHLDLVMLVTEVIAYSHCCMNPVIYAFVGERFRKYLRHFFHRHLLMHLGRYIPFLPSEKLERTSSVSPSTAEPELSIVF
Procedure: B.) Investigation of Ca^2+ Mobilization in hCCR3-RBL and hCCR3 K562 Cells
HCCR3-K562 and hCCE3-RBL2H3 cells in 40,000 cells/well density (number of cells in one well of the microplate) are cultured for 24 hours. The cells are washed and loaded with calcium indicator dye (Calcium Plus assay Kit, Molecular Devices). The cells are incubated in the presence of the dye for 60 minutes while loading takes place. The dye is a fluorescent calcium indicator, which sensitively indicates the intracellular calcium concentration. The intracellular calcium concentration is in direct ratio with the fluorescent signal of the sample. The experiments are performed in a BMG NOVOSTAR apparatus, at […].
The selective agonists used in the experiments are:
In the experiments an agonist concentration is used which causes a 75% calcium signal compared to the maximum attainable signal.
Antagonists are added 15 minutes before the agonist treatment.
The change of the fluorescent signal is monitored for 30 seconds, during that period the process takes place.
The intensity of the maximum calcium signal following the addition of the agonist is compared with the calcium signal obtained after the addition of the same agonist, but in the presence of the inhibitor.
The activity of the compounds is characterized with the IC50 values.

[2] = test B, inhibition of agonist-induced calcium signal in hCCR3-K562 / hCCR3-RBL2H3 cells, antagonist added 15 minutes before agonist, read-out: IC50

| Compound | melting point | IC50 [1] | IC50 [1, 2] |
| --- | --- | --- | --- |
| CCNC(=O)N[N+]1(CCCNC(=O)CCc2nc3nc(N4CC(C)OC(C)C4)ccc3s2)CCCC1c1ccc(Cl)c(Cl)c1.Cl (centres unmarked) | 115 to 118 °C | – | – |
| 1-Amino-2-(3,4-dichlorophenyl)-1-(3-{[3-(5-pyrrolidin-1-yl[1,3]thiazolo[4,5-b]pyridin-2-yl)propanoyl]amino}propyl)pyrrolidinium tosylate [Example 14] | – | – | 1 nM |
| O=C(CCc1nc2nc(N3CCCC3)ccc2s1)NCCC[N+]1([O-])CCCC1c1ccc(Cl)c(Cl)c1 (centres unmarked) | 185 to 188 °C | – | – |
| Cc1ccc2nc(CCC(=O)NCCCN3CCCC3c3ccc(Cl)c(Cl)c3)sc2n1 (centres unmarked) | 125 to 130 °C | – | – |
| CNc1ccc2nc(CCC(=O)NCCCN3CCCC3c3ccc(Cl)c(Cl)c3)sc2n1 (centres unmarked) [Example 2, N-{3-[2-(3,4-dichlorophenyl)pyrrolidin-1-yl]propyl}-3-(5-(methylamino)[1,3]thiazolo[5,4-b]pyridin-2-yl)propionamide] | 119 to 121 °C | 18 nM | – |
| 1-(Acetylamino)-2-(3,4-dichlorophenyl)-1-(3-{[3-(5-piperidin-1-yl[1,3]thiazolo[4,5-b]pyridin-2-yl)propanoyl]amino}propyl)pyrrolidinium hydrochloride [Example 23] | – | – | 13 nM |
| N-{3-[2-(3,4-dichlorophenyl)-1-oxidopyrrolidin-1-yl]propyl}-3-(5-morpholin-4-yl[1,3]thiazolo[4,5-b]pyridin-2-yl)propionamide [Example 21] | – | – | 82.5 nM |
| Cc1ccc2nc(CCC(=O)NCCCN3CCCC3c3ccc(Cl)c(Cl)c3)sc2c1 (centres unmarked) | 76 to 79 °C | – | – |

More lines, main results first:

| melting point | IC50 [1] | Compound | IC50 [1, 2] |
| --- | --- | --- | --- |
| 105 °C | 3.9 nM | O=C(CCc1nc2ncc(N3CCCCC3)nc2s1)NCCCN1CCCC1c1ccc(Cl)c(Cl)c1 (centres unmarked) [Example 9] | – |
| 93 to 95 °C | 3.4 nM | O=C(CCc1nc2ccc(N3CCCCC3)nc2s1)NCCCN1CCCC1c1ccc(Cl)c(Cl)c1 (centres unmarked) [Example 4, N-{3-[2-(3,4-dichlorophenyl)pyrrolidin-1-yl]propyl}-3-(5-piperidin-1-yl[1,3]thiazolo[5,4-b]pyridin-2-yl)propionamide] | – |
| – | 1.6 nM | CC1CN(c2ccc3nc(CCC(=O)NCCCN4CCCC4c4ccc(Cl)c(Cl)c4)sc3n2)CC(C)O1 (centres unmarked) [Example 11, N-{3-[2-(3,4-dichlorophenyl)pyrrolidin-1-yl]propyl}-3-(5-(2,6-dimethylmorpholin-4-yl)[1,3]thiazolo[5,4-b]pyridin-2-yl)propionamide] | – |
| 185 to 187 °C | 13 nM | O=C(CCc1nc2ccc(N3CCCCC3)nc2s1)NCCC[N+]1([O-])CCCC1c1ccc(Cl)c(Cl)c1 (centres unmarked) [Example 20] | – |
| 137 to 138 °C | 5 nM | O=C(CCc1nc2ccc(N3CCCC3)nc2s1)NCCCN1CCCC1c1ccc(Cl)c(Cl)c1 (centres unmarked) [Example 3, N-{3-[2-(3,4-dichlorophenyl)pyrrolidin-1-yl]propyl}-3-(5-pyrrolidin-1-yl[1,3]thiazolo[5,4-b]pyridin-2-yl)propionamide] | – |
| 111 to 112 °C | 0.9 nM | O=C(CCc1nc2ccc(N3CCOCC3)nc2s1)NCCCN1CCCC1c1ccc(Cl)c(Cl)c1 (centres unmarked) [Example 5, N-{3-[2-(3,4-dichlorophenyl)pyrrolidin-1-yl]propyl}-3-(5-morpholin-4-yl[1,3]thiazolo[5,4-b]pyridin-2-yl)propionamide] | – |
